According to patent publication US20140272067A1, “ORGANIC COMPOUNDS” (Givaudan S.A., priority 2011, published 2014):

Legend:
Format in all cases: in vivo
[1] = Taste panel: umami and salt intensity of solution B vs reference solution A (Example 2); conditions: 10 ppm compound in 0.5% NaCl and 0.03% MSG vs same solution without compound; scale -3 (much lower than base) to 3 (much higher than base); average of 4 flavourists
Protocol: Two solutions were prepared: • A a solution of 0.5% NaCl and 0.03% MSG • B a solution of 0.5% NaCl and 0.03% MSG and 10 ppm Example 1 compound
The samples were tasted by a small group of flavourists (2 male, 2 female, aged between 30 and 60). The intensity of the umami and salt taste of solution B was compared with that of the reference (solution A) and rated according to the following intensity scale: • Taste effect much lower than base: −3 • Taste effect lower than base: −2 • Taste effect slightly lower than base: −1 • Taste effect same as base: 0 • Taste effect slightly higher than base: 1 • Taste effect higher than base: 2 • Taste effect much higher than base: 3
The results (average of ratings given by the flavourists) were: […]

[2] = Taste panel: enhancement effect on NaCl, MSG and ribonucleotides taste (Example 3); conditions: 5-10 flavourists
Protocol: Six solutions were prepared: • A a solution of 0.5% NaCl • B a solution of 0.5% NaCl and 0.03% MSG • C a solution of 0.5% NaCl and 0.015% ribonucleotides • D a solution of 0.5% NaCl and 50 ppm Example 1 compound • E a solution of 0.5% NaCl and 0.03% MSG and 50 ppm Example 1 compound • F a solution of 0.5% NaCl and 0.015% ribonucleotides and 50 ppm Example 1 compound
The samples were tasted by a group of 5-10 flavourists aged between 30 and 60. The taste of solution D is compared with that of A to determine the enhancement effect of Example 1 compound on NaCl. Similarly, solution E is compared with solution B and solution F with solution C to determine the enhancement effect of Example 1 compound on MSG and ribonucleotides respectively. The effect is marked between 0 and 10, the greater the value the greater the effect.

[3] = Taste panel: bouillon with compound vs reference bouillon (Example 4); conditions: 200 ppm in bouillon (32 g mix in 1 L boiling water); 4 flavourists
Protocol: A bouillon mix was prepared from 155.0 g of sodium chloride, 157.0 g of dextrose monohydrate (ex Tapioca), 0.2 g of celery oleoresin, 0.3 g of oleoresin turmeric Vegex, 0.2 g of oleoresin coriander seed, 444.8 g maltodextrin 5-8 DE, 40.0 g vegetable oil soya bean refined, 30.0 g yeast standard light, 4.0 g of onion powder, 4.0 g of garlic powder, 0.5 g of white pepper and 164.0 g of potato starch.
32 g of the well-mixed ingredients was added to 1 L of boiling water and stirred until completely dissolved.
A small group of flavourists (2 male, 2 female) compared the taste of the reference bouillon with that of a batch of the same bouillon containing 200 ppm of N-methyl-D-aspartic acid.

SMILES	Intensity Taste Salt (NaCl) [1]	Intensity Taste Umami [1]	NaCl Taste ([2]; 50 ppm compound in 0.5% NaCl (solution D) vs solution A (reference 0.0), marked 0 to 10, the greater the value the greater the effect)	Ribo taste ([2]; 50 ppm compound in 0.5% NaCl and 0.015% ribonucleotides (solution F) vs solution C (reference 5.0), marked 0 to 10)	MSG taste ([2]; 50 ppm compound in 0.5% NaCl and 0.03% MSG (solution E) vs solution B (reference 5.0), marked 0 to 10)	Salivating effect of test bouillon vs reference bouillon [3]	Umami taste of test bouillon vs reference bouillon [3]
CNC(CCC(=O)O)C(=O)O (racemic) [N-methyl-DL-glutamic acid, N-methyl-DL-glutamic Acid]	1.00	0.00	–	–	–	–	–
CN[C@H](CC(=O)O)C(=O)O [N-methyl-D-aspartic acid, N-methyl-D-aspartic Acid]	0.50	0.50	0.7	6.3	5.3	slightly more salivating	slightly more umami
